Values quoted from earlier work, collected in PMC12311865, “In Vitro Evaluation of the Potential Interactions of Zearalenone-14-sulfate and Zearalenone-14-glucuronide with Human Cytochrome P450 Enzymes, Organic Anion Transporting Polypeptides, and ATP-Binding Cassette Multidrug Transporters” (ACS Omega, 2025).

What was measured:
[1] = biological target: T1, CYP2C9 (Homo sapiens, UniProt P11712); design: method as in our previous study; conditions: ref our previous study; cited from earlier work
T1 construct: purchased Merck

[2] = biological target: T2, CYP3A4 (Homo sapiens, UniProt P08684); design: method as in our previous study; conditions: ref our previous study; cited from earlier work
T2 construct: purchased Merck

[3] = biological target: T3, OATP1A2 (Homo sapiens, UniProt P46721); design: method as in earlier report; conditions: same experimental model; ref earlier report; cited from earlier work
T3 construct: expressed in transfected cells; host or cells: A431
T3 sequence (P46721 1-670): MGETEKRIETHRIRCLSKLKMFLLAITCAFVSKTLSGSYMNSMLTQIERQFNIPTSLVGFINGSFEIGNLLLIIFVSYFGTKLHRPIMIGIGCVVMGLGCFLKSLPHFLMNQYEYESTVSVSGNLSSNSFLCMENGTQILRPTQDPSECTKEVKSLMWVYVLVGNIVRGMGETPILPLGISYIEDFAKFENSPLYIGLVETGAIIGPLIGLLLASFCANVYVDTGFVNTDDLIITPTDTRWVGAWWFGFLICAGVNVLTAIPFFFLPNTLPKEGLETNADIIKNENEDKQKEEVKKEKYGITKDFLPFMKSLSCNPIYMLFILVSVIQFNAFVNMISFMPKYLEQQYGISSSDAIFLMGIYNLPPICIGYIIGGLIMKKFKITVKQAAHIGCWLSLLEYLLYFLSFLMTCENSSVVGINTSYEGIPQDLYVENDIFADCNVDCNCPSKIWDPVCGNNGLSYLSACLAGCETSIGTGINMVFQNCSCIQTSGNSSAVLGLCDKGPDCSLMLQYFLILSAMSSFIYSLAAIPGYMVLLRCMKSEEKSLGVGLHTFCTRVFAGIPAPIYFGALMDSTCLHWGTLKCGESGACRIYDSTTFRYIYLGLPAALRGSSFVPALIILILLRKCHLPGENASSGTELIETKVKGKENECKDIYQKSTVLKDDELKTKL

[4] = biological target: T4, OATP1B1 (Homo sapiens, UniProt Q9Y6L6); design: method as in earlier report; conditions: same experimental model; ref earlier report; cited from earlier work
T4 construct: expressed in transfected cells; host or cells: A431
T4 sequence (Q9Y6L6 1-691): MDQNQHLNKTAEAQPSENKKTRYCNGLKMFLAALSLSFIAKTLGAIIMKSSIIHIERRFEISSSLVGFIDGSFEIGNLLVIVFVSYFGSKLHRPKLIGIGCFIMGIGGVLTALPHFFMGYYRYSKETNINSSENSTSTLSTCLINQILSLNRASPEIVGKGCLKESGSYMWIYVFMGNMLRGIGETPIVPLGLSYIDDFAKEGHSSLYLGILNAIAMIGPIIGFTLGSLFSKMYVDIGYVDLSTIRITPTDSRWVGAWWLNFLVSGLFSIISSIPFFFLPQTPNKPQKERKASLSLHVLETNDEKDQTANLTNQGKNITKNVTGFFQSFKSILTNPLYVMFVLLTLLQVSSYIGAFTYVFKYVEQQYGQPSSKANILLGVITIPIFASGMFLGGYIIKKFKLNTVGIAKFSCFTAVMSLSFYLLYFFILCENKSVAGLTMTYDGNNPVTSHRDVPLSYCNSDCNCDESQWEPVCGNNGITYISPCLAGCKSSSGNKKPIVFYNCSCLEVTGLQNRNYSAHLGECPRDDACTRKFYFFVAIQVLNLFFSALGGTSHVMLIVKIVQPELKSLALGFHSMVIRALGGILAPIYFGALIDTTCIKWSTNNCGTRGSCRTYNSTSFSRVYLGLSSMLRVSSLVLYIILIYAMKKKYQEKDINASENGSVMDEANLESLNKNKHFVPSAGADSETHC

[5] = biological target: T5, OATP1B3 (Homo sapiens, UniProt Q9NPD5); design: method as in earlier report; conditions: same experimental model; ref earlier report; cited from earlier work
T5 construct: expressed in transfected cells; host or cells: A431
T5 sequence (Q9NPD5 1-702): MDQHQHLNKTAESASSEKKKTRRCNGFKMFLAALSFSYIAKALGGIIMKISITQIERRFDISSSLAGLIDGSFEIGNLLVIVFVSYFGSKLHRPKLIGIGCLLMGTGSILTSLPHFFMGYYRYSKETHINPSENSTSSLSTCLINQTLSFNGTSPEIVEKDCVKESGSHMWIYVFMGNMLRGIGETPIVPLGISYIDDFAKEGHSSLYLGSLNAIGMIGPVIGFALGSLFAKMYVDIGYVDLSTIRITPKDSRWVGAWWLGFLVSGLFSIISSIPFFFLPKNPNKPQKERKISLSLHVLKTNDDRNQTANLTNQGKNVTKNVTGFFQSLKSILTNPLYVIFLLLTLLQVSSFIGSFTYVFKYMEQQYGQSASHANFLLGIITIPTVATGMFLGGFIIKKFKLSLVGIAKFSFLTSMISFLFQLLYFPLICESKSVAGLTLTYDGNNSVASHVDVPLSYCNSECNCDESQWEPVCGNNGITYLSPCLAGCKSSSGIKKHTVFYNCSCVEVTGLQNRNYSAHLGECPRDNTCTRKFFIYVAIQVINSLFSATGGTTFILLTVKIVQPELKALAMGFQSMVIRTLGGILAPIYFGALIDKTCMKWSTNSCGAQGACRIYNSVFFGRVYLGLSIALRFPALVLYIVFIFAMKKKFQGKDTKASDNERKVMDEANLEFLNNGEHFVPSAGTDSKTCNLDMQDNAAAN

[6] = biological target: T6, CYP1A2 (Homo sapiens, UniProt P05177); design: purchased Abcam ab211075; method as in our previous study; conditions: ref our previous study; cited from earlier work
T6 sequence (P05177 1-516): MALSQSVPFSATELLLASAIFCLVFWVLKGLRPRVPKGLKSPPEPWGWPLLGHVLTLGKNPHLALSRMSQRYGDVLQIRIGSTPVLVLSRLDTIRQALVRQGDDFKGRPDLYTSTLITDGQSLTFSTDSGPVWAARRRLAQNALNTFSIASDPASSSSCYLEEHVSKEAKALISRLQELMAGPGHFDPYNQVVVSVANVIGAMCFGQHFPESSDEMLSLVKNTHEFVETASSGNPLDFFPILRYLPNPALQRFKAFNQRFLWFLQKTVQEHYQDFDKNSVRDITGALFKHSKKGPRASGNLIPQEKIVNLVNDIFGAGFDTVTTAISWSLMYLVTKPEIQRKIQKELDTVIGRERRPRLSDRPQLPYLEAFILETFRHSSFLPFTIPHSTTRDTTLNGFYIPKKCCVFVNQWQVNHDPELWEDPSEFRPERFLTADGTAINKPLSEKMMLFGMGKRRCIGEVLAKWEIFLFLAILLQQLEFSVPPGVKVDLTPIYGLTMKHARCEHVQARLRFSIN

T2 sequence (P08684 whole entry): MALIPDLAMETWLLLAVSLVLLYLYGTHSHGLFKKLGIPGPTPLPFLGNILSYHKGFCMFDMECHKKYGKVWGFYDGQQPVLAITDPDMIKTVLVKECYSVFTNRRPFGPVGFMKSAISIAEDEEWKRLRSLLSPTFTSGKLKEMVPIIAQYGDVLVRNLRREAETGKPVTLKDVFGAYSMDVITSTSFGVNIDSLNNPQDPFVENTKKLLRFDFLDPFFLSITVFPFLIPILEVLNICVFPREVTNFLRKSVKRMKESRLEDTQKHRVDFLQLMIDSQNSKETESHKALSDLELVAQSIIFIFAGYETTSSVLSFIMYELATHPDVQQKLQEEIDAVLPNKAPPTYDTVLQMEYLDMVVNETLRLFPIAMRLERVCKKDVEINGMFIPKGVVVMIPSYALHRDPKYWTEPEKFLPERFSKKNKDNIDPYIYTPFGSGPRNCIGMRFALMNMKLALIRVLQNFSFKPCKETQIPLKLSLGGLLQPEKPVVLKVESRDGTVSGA
T1 sequence (P11712 whole entry): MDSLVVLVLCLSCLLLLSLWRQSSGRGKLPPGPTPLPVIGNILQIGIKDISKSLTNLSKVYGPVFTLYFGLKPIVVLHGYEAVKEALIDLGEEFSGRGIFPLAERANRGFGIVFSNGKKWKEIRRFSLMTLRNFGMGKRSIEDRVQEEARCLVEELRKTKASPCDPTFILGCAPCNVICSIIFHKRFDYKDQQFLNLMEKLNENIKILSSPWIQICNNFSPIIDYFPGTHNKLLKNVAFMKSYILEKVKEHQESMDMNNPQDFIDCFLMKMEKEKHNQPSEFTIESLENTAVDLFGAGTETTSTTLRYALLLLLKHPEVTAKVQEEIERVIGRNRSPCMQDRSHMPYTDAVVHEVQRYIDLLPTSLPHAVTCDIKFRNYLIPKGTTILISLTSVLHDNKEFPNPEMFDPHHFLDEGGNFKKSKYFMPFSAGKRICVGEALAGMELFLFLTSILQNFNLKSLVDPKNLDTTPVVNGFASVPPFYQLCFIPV

SMILES: C[C@H]1CCCC(=O)CCC/C=C/c2cc(O)cc(O)c2C(=O)O1 [ZEN, Zearalenone]
- IC50 [1]: 9.8 µM
- IC50 [2]: 2 µM
- IC50 [3]: 2.3 µM
- IC50 [4]: > 10 µM
- IC50 [5]: 8.1 µM
- IC50 [6]: 7.8 µM
